{"source": "patent US11466020B2", "about": "“Compounds and compositions for inhibition and elimination of Zika infection and uses for same” (Cornell University, priority 2017, dated 2022)", "test_system": "ZIKV MR766", "assay": "Elimination of ZIKV from infected hNPCs (drug applied 2 h post infection, 3 days drug, 3 days drug-free)", "assay_type": "cell-based, Zika virus", "conditions": "for ZIKV infection of hNPCs at day 6: 3 days treatment followed by 3 days culture without drug; for ZIKV infection rate of hNPCs at day 3: day 3 of treatment", "experimental": "(A) Scheme to evaluate the elimination of ZIKV. At day 0, hNPCs were infected with ZIKV for 2 h. After removal of ZIKV infection medium, hNPCs were treated with drug candidates. At day 3, the culture medium was changed to fresh medium without compounds. The cells were maintained in drug-free culture until day 6 and used for immunohistochemistry and qRT-PCR. (B and C) Inhibitory curve and IC50 of HH calculated based on the infection rate (B) and normalized cell viability (C) (n=6). (D and E) Immunocytochemistry analysis (D) and the quantification of infection rate, cell apoptosis rate, and total cell number (E) of hNPCs on day 3 and day 6. Cells was fixed and stained with cleaved Caspase-3 (CAS3), ZIKV E and DAPI. Scale bars, 100 μm. (F) qRT-PCR analysis to monitor the total ZIKV vRNA in the supernatant of hNPC cultures on day 6. Scale bars, 200 μm. (n=3). (G) Vero cell reinfection assay to monitor the infective ZIKV vRNA in the supernatant of hNPC cultures at day 6 after ZIKV infection. Scale bars, 200 μm. (n=3). (H) Quantification of ZIKV infectious particles produced by ZIKV-infected hNPCs at day 6 by the Vero cell reinfection assay. (I) hNPCs with or without ZIKV infection treated with HH maintain hNPC marker expression and differentiation capacity. hNPCs with or without ZIKV MR766 infection were treated with 25 μM HH or DMSO for 3 days and then stained for SOX2, NESTIN and with DAPI. hNPCs with or without ZIKV infection and treated with HH or DMSO for 3 days were differentiated to cortical neurons. The cortical neurons were then fixed and stained for MAP2, TUJ1 and with DAPI. Scale bars, 100 μm. (n=3). (J) ZIKV (MR766 strain) dynamics in hNPCs. qRT-PCR analysis to quantify the total and replicating (−) strand vRNAs in the hNPCs at different time points post infection. […] (K) qRT-PCR analysis of hNPCs, on which 25 μM HH or DMSO were added at 24 h, 36 h and 48 h post-ZIKV (MR766 strain) infection and maintained for additional 3 days. p values were calculated by unpaired two-tailed Student's t-test. *p<0.05, **p<0.01 and ***p<0.001, if not mentioned specifically.\nHH eliminates virus from ZIKV infected hNPCs. To determine whether the drug candidates are capable of eliminating ZIKV in previously infected hNPCs, HH or AQ was applied 2 h post ZIKV infection (FIG. 2A).\nZIKV-infected hNPCs were treated with HH or AQ for 3 days, followed by 3 days culture in drug-free medium. Immunocytochemical analysis of ZIKV E, cleaved-caspase-3 (CAS3) and DAPI were performed at day 0 (just before ZIKV infection), day 3, and day 6 to measure the ZIKV infection rate, cell death rate and total cell numbers, respectively. […] In addition, neither ZIKV vRNA, as indicated by qRT-PCR (FIG. 2F), or production of infectious ZIKV, as indicated by a Vero cell re-infection assay, was detected in day 6 supernatant of HH-treated conditions (FIGS. 2G and 2H). […] In contrast, hNPCs without HH treatment underwent significant cell death after 3 days of ZIKV infection, and there were no cells detected after cortical neuron differentiation (data not shown).\nGeneration of inhibitory curves. hNPCs were plated on 96-well plates with Accutase digestion at 8.5×10^4/cm^2 density and incubated overnight. For generating inhibitory curves of compound for inhibiting ZIKV infection, cells were first treated with DMSO or different doses of hit compounds for 1 h before ZIKV infection. The cells were then infected with ZIKV MR766 at a MOI=0.125. After 2 h of infection, the virus-containing medium was replaced by fresh virus-free medium and compounds were added again to the same wells. For generating inhibitory curves of compound for eliminating ZIKV, compounds were instead added after ZIKV infection. After 3 days incubation, the cells were fixed and stained for ZIKV envelope protein (ZIKV E) and DAPI was used to stain cell nuclei. Plates were analyzed with the ImageXpress^MICRO Automated High-Content Analysis System. IC50 was calculated using MasterPlex Reader Fit 2010.", "key": {"[1]": {"conditions": "compound applied 2 h post ZIKV infection"}}, "note": "Where a name gives a salt, the structure may show the parent alone.", "data": [{"smiles": "CCN(CC)Cc1cc(Nc2ccnc3cc(Cl)ccc23)ccc1O", "note": "[AQ, amodiaquine dihydrochloride dihydrate]", "values": [{"measurement": "ZIKV infection of hNPCs at day 6", "value": "comparable to the level of infection in the DMSO control condition"}, {"measurement": "elimination of ZIKV infection in previously infected hNPCs", "setting": "[1]", "value": "capable of eliminating ZIKV infection"}, {"measurement": "ZIKV infection rate of hNPCs at day 3", "value": "undetectable levels"}]}, {"smiles": "CN1CCC2=C[C@H](O)[C@H]3OC(=O)c4cc5c(cc4[C@H]3[C@@H]21)OCO5", "note": "[HH, hippeastrine hydrobromide]", "values": [{"measurement": "ZIKV infection of hNPCs at day 6", "value": "remained undetectable"}, {"measurement": "IC50 for eliminating versus inhibiting ZIKV", "setting": "[1]", "value": "comparable IC50 values"}, {"measurement": "elimination of ZIKV infection in previously infected hNPCs", "setting": "[1]", "value": "capable of eliminating ZIKV infection"}, {"measurement": "ZIKV infection rate of hNPCs at day 3", "value": "undetectable levels"}]}]}
